# Assay results reported in patent publication US12296048B2, “Polymer particles for neutrophil injury” (THE REGENTS OF THE UNIVERSITY OF MICHIGAN, priority 2019, dated 2025).
# System: mice with LPS-induced ALI
# Format: in vivo
# Experimental: In a lipopolysaccharide (LPS) mouse model of ALI, LPS administered to the lungs of healthy mice induces rapid recruitment of neutrophils into the lungs.
# Poly-A microspheres were injected into the tail vein of mice with LPS-induced ALI at 30 mg/kg.
# Male BALB/c or C57BL/6J mice were anesthetized with inhaled isoflurane, and given 50 μL of 0.4 mg/mL LPS orotracheally to induce lung inflammation. Particles (2×10^8 in 100 μL PBS per mouse) were injected at either 2 hrs or 6 hrs post-instillation via tail vein catheter. Methods of euthanasia and sample processing are shared with the P. Aeruginosa model (below) except instead of cytospin BALF, cells were stained with CD45, CD11b, and Ly6G, and were fixed overnight before flow cytometry to determine the % of neutrophils and macrophages in each sample.
compound,measurement,setting,value
CC(=O)Oc1ccccc1C(=O)O [aspirin],BALF concentration of KC,LPS-ALI mice,not
same,BALF concentration of MIP2,LPS-ALI mice,not
same,BALF neutrophil count compared to ALI mice with no particles,"tail vein injection 1 hr after LPS, Poly-A 30 mg/kg, aspirin in DMSO",did not reduce
